Test results from US10301270B2, “Compositions and methods for quadricyclane modification of biomolecules” (The Regents of the University of California, priority 2011, dated 2019).
“Also recorded” adds a separate entry of the source. Where two headings read alike, the source gives them in different places.

Assays:
Assay type in all cases: physicochemical
[1] = Photo-lability of complex 3 in ambient light (NMR, UV/Vis/NIR); conditions: CDCl3 solution in an NMR tube
Experimental: Complex 3 (2.2 mg) was dissolved in CDCl3 (˜0.75 mL) and placed in an NMR tube on the bench continually exposed to ambient light. NMR spectra were periodically obtained. The asterisks indicate the chemical shifts for 7-acetoxy norbornadiene (4). At the 36 h time point, there is a 1:1.1 ratio of 3:4 as judged by integration of the olefin peaks.
Using an NMR assay degradation of 3 over the first few hours is not evident. However, using UV/Vis/NIR spectroscopy, which has greater sensitivity than NMR, the formation of 2 from 3 is evident at early timepoints. A solution of 3 was prepared in CH3CN and left in ambient light. A UV/Vis/NIR spectrum was obtained every 15 min. The NIR absorption band at 855 nm characteristic of 2 is growing in, while the small hump centered at ˜400 nm characteristic of […] is decreasing. The absorption band at 350 nm is also increasing in intensity.

[2] = Solubility and reactivity of bis(dithiobenzil)nickel(II) 2
[3] = Prevention of photo-degradation of complex 3 by diethyldithiocarbamate (UV/Vis/NIR); conditions: 200 μM 3, 1.25 mM 5, 3:1 CH3CN/H2O, 20 h ambient light
Experimental: A solution containing 200 μM 3 and 0 (red) or 1.25 (green) mM 5 in 3:1 CH3CN/H2O was prepared and left in ambient light continually. A. UV/Vis/NIR spectra of the described solutions taken before being exposed to light. B. UV/Vis/NIR spectra of the described solutions taken after 20 h of exposure to light. The red line contains little absorbance due to the low solubility of 2 in acetonitrile. If 2 is reduced to the anionic state by cysteine (1.25 mM, blue line) solubility in acetonitrile is improved and evidence of photodegradation can be seen. The diethyldithiocarbamate treated sample remains unaltered after exposure to light indicating no photodegradation occurred.

[4] = Stability of quadricyclane 1 to cysteine and other biological nucleophiles, BSA and cell culture media
Experimental: 7-acetoxy quadricyclane (1, 2 mg) was dissolved in 0.4 mL of CD3CN. To this solution, 0.4 mL of deuterated PBS and 3 mg of cysteine were added. The NMR spectrum above was taken 2.5 months after the described solution was prepared.

[5] = Stability of 7-acetoxy quadricyclane 1 in PBS (NMR); conditions: room temperature, more than 2 months (NMR taken 2.5 months after preparation, CD3CN/deuterated PBS)
Experimental: 7-acetoxy quadricyclane (1, 2 mg) was dissolved in 0.4 mL of CD3CN. To this solution, 0.4 mL of deuterated PBS was added. The NMR spectrum above was taken 2.5 months after the described solution was prepared.

Compound CC(=O)OC1C2C=CC1C1C2[S]2=[Ni]3(=[S]1C(c1ccccc1)=C(c1ccccc1)[S]3)[S]C(c1ccccc1)=C2c1ccccc1 (stereo not drawn) [Complex 3] has a half-life at 2.9 mg/mL ([1]; NMR, read-out: Calculated half-life of photo-degradation based on all integration data (converted)) of 2090 min and a half-life at 2.9 mg/mL ([1]; read-out: Half-life of the light-induced reversion (converted)) of roughly 2100 min.

For S=C(C(=S)c1ccccc1)c1ccccc1.S=C(C(=S)c1ccccc1)c1ccccc1.[Ni] [Compound 2, Bis(dithiobenzil)nickel(II)], the Solubility in acetonitrile ([2]; acetonitrile) was “low”, the “Reactivity with a variety of nucleophiles” value ([2]; in dichloromethane) was “unreactive” and the “Solubility in polar solvents” value ([2]; polar solvents) was “limited”.

With CCN(CC)C(=S)S [Compound 5, diethyldithiocarbamate] the “Effect on photo-degradation of complex 3” value [3] was “prevented”.

With CC(=O)OC1C2C3C2C2C1C32 (stereo not drawn) [Compound 1, 7-acetoxy Quadricyclane] the “Stability in the presence of bovine serum albumin (BSA) and cell culture media” value ([4]; conditions emulating metabolic labeling experiments) was “stable”, the “Reactivity with sugars, oxidants and free amino acids, most notably cysteine” value ([4]; cysteine: CD3CN/deuterated PBS, NMR after 2.5 months) was “stable; also recorded: unreactive” and the “Stability in phosphate buffered saline (PBS, pH 7.4)” value [5] was “stable; also recorded: no degradation observed”.
